How the values were obtained:
[1] = single dose of 10 mg, healthy adults, in 72 hours; cited from earlier work
[2] = tested on: patients with autism spectrum disorder classified as Phenotype 1; test: ADI-r scores of ASD phenotype 1 patients under treatment; type: in vivo, human; conditions: after four weeks of ibudilast 0.6 mg/kg daily total, TID
Procedure: A pharmaceutical composition comprising ibudilast and bumetanide was administered to patients with a diagnosis of autism spectrum disorder as defined in the DSM-5, or PDD-NOS or Asperger syndrome as defined in the DSM-IV. Eligibility criteria: male sex, age 5-50, no current chronic illness, no history of active seizures within 1 year, normal liver, renal and thyroid function. Concomitant medications were permitted if doses were stable for at least 60 days prior to the initiation of the challenge test. Patients with no syndromic or identified genetic etiology. […] Description: Four of the patients characterized as above were administered ibudilast. The four subjects had varying levels of functioning ranging from mild to severe, and varying different levels of verbal and intellectual abilities. IQ values ranged from 61 to 86. All were males. Four patients were treated with ibudilast at a daily total dosage of 0.6 mg/kg, TID. A new treatment regimen was introduced, this time ibudilast at a daily total dosage of 0.6 mg/kg, TID, was administered in conjunction with bumetanide at a daily total dosage of 0.08 mg/kg, BID (with a maximum upper daily dose of […]).

**Q.** What does the source list for CC(C)C(=O)c1c(C(C)C)nn2ccccc12 [ibudilast]?
**A.** dose excreted as metabolites in urine [1]: about 60%; ADI-r RI ([2]; Patient 1, baseline 7): 6; ADI-r C ([2]; Patient 1, baseline 24): 20; ADI-r SI ([2]; Patient 1, baseline 28): 21; ADI-r RI ([2]; Patient 2, baseline 5): 5; ADI-r C ([2]; Patient 2, baseline 19): 15; ADI-r SI ([2]; Patient 2, baseline 20): 16; ADI-r RI ([2]; Patient 3, baseline 7): 5; ADI-r SI ([2]; Patient 3, baseline 14): 12; ADI-r C ([2]; Patient 3, baseline 18): 14; ADI-r RI ([2]; Patient 4, baseline 7): 7; ADI-r C ([2]; Patient 4, baseline 17): 14; ADI-r SI ([2]; Patient 4, baseline 27): 22

— patent publication US11439627B2, “Pharmaceutical composition for the treatment of autism” (Stalicla S.A., priority 2017, dated 2022)
